Source: patent US20260007601A1, “IONIZABLE CATIONIC LIPID COMPOUND AND COMPOSITION FOR DELIVERING NUCLEIC ACID AND USE THEREOF” (BEIJING YOUCAREKECHUANG PHARMACEUTICAL TECHNOLOGY CO., LTD., priority 2023, published 2026)

Columns and labels:
[1] = Particle size and polydispersity index (PDI) of nanolipid particles, dynamic light scattering; type: physicochemical; details: LNP formulation prepared from the named cationic lipid, 25° C
Procedure: The particle size and polydispersity index (PDI) were determined by dynamic light scattering method using a Malvern laser particle size analyzer. 10 μL of liposome solution was diluted to 1 mL with RNase-free deionized water and added to a sample pool. Each sample was measured three times. The measurement conditions were: 90° scattering angle, 25° C.

[2] = Encapsulation rate, drug loading concentration and total RNA concentration detection (RiboGreen); type: physicochemical; details: LNP formulation of the named lipid
[3] = tested on: 293T cells; assay: Fluorescence detection of Fluc-mRNA (cell transfection efficiency of LNP formulations); type: cell-based; details: for Relative light unit (RLU): LNP containing 0.3 μg Fluc-mRNA, 24 hours; for Multiples of values that equivalent to YK-201: RLU of YK-201 / RLU of the named lipid; for Multiples of values that equivalent to YK-202: RLU of YK-202 / RLU of the named lipid; for Multiples of values that equivalent to YK-209: RLU of YK-209 / RLU of the named lipid; for Ratio relative to SM-102: RLU of the named lipid / RLU of SM-102, times that of SM-102
In short: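 293T cells at 10,000 per well, adhered overnight, then given LNPs carrying 0.3 μg Fluc-mRNA (cationic:neutral:structured:polymer-conjugated lipid 49:10:39.5:1.5 molar). After 24 h, luciferase signal read with luciferase kit reagents on an IVIS imaging system as transfection efficiency.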

[4] = tested on: 293T cells; assay: Cell survival rate assay (CCK-8); type: cell-based; details: LNP containing 1.5 μg Fluc-mRNA, 24 hours, CCK-8
In short: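 293T cells seeded at 10,000 per well and grown overnight, then exposed for 24 h to LNPs (cationic/neutral/structured/PEG lipids 49:10:39.5:1.5) carrying 1.5 μg Fluc-mRNA, or Lipofectamine 3000. Viability read by CCK-8, 1 h incubation, absorbance at 450 nm.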

[5] = tested on: female BALB/C mice; assay: Mouse in vivo imaging of Fluc-mRNA LNP formulations; design: average radiation intensity (mRNA expression): unit not given here; details: 10 μg Fluc-mRNA LNP intramuscularly
Procedure: The LNP formulation containing 10 μg Fluc-mRNA (prepared according to Example 4) was injected intramuscularly into female BALB/C mice aged 4 to 6 weeks and weighing 17 to 19 g, and the mice were intraperitoneally injected with fluorescent imaging substrates at specific time points (6 h, 24 h, 48 h and 7 d) after administration. The mice moved freely for 5 minutes, and then the average radiation intensity (corresponding to the fluorescence expression intensity) of the protein expressed by the mRNA carried by the LNP in the mice was detected by IVIS Spectrum small animal in vivo imager. The test results are shown in Tables 14 to 17 and FIGS. 12 to 14.

Structure (SMILES)	PDI [1]	Particle size [1]	Drug loading concentration [2]	Encapsulation rate [2]	Total RNA concentration [2]	Relative light unit (RLU) [3]	Multiples of values that equivalent to YK-201 [3]	Multiples of values that equivalent to YK-202 [3]	Multiples of values that equivalent to YK-209 [3]	Ratio relative to SM-102 [3]	Cell survival rate [4]	average radiation intensity (mRNA expression) ([5]; 6 h)	average radiation intensity (mRNA expression) ([5]; 24 h)	average radiation intensity (mRNA expression) ([5]; 48 h)	average radiation intensity (mRNA expression) ([5]; 7 d)
CCCCCCCCCCOC(=O)CCCN(CCO)CCCCCC(=O)OCC(CCCCCCCC)CCCCCCCC [YK-009, reference compound]	13.0%	202 nm	26.86 µg/mL	63.0%	38.62 µg/mL	5125986 RLU	5.56	5.84	5.24	3.08	72.88%	1012400	767850	128570	10741
CCCCCCCCCCCOC(=O)CCCCCN(CCCCCCCC(=O)OC(CCCCCCCC)CCCCCCCC)CCN(CC)CCO [YK-204, heptadecan-9-yl-8-(2-((2-hydroxyethyl)(ethylamino))ethyl)(6-oxo-6-((undecanyloxy)hexyl)amino)octanoate]	17.7%	193 nm	32.62 µg/mL	75.9%	42.98 µg/mL	363998 RLU	78.25	82.30	57.85	0.22	42.57%	35245	5230	2440	754
